Experimental data: ChEMBL document CHEMBL1268952, “Design, synthesis, and evaluation of indolinones as inhibitors of the transforming growth factor β receptor I (TGFβRI)” (J Med Chem, 2010)

Key:
TGF-beta receptor type-1 [1] = target: T1, TGF-beta receptor type-1 (Homo sapiens, UniProt P36897); assay: Inhibition of TGFbeta receptor in human HaCaT cells assessed as Smad phosphorylation by ELISA; type: cell-based
T1 sequence (P36897 whole entry): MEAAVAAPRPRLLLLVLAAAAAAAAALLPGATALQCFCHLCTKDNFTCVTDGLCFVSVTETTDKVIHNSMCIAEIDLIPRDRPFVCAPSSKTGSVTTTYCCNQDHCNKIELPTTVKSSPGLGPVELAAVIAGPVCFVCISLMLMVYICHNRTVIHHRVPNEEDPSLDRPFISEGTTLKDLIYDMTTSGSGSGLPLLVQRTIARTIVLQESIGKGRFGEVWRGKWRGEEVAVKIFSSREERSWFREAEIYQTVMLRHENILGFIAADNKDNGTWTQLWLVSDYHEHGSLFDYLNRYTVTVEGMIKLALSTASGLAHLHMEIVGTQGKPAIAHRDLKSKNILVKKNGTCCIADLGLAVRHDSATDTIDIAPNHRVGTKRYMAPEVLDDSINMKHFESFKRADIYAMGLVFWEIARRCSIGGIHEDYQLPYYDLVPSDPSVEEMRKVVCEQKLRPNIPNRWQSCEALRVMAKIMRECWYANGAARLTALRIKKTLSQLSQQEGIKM

TGF-beta receptor type-1 [2] = target: T1, TGF-beta receptor type-1; assay: Inhibition of TGFbeta receptor
[3] = target: Platelet-derived growth factor receptor alpha (Homo sapiens, UniProt P16234); assay: Inhibition of PDGFRalpha
HaCaT = assay: Cytotoxicity against human HaCaT cells
[4] = target: Proto-oncogene tyrosine-protein kinase Src (Homo sapiens) (UniProt P12931); assay: Inhibition of Src at 2 uM
[5] = target: T2, Lymphokine-activated killer T-cell-originated protein kinase (Homo sapiens) (UniProt Q96KB5); assay: Inhibition of PBK at 1 uM; values are per cent of control
T2 sequence (whole entry): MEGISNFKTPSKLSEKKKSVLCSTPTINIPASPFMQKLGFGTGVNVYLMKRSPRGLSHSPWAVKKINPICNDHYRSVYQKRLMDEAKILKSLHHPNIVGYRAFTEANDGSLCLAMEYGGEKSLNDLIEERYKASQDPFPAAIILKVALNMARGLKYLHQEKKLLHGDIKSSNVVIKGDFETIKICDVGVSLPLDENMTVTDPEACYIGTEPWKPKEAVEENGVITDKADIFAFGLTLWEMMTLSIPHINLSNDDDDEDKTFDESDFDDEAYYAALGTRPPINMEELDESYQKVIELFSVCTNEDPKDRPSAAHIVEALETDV

[6] = Inhibition of CK2 at 1 uM; values are per cent of control
[7] = target: Tyrosine-protein kinase CSK (Homo sapiens) (UniProt P41240); assay: Inhibition of CSK at 1 uM; values are per cent of control
[8] = target: Ribosomal protein S6 kinase beta-1 (Homo sapiens) (UniProt P23443); assay: Inhibition of S6K1 at 1 uM; values are per cent of control
[9] = target: Serine/threonine-protein kinase Nek6 (Homo sapiens) (UniProt Q9HC98); assay: Inhibition of NEK6 at 1 uM; values are per cent of control
[10] = target: Dual specificity mitogen-activated protein kinase kinase 1 (Homo sapiens) (UniProt Q02750); assay: Inhibition of MKK1 at 1 uM; values are per cent of control
[11] = Inhibition of AMPK at 1 uM; values are per cent of control
[12] = target: Protein kinase C alpha type (Homo sapiens) (UniProt P17252); assay: Inhibition of PKCalpha at 1 uM; values are per cent of control
[13] = target: Dual specificity mitogen-activated protein kinase kinase 2 (Homo sapiens) (UniProt P36507); assay: Inhibition of MKK2 at 1 uM; values are per cent of control
[14] = target: T3, Mitogen-activated protein kinase 13 (Homo sapiens) (UniProt O15264); assay: Inhibition of p38delta at 1 uM; values are per cent of control
T3 sequence (whole entry): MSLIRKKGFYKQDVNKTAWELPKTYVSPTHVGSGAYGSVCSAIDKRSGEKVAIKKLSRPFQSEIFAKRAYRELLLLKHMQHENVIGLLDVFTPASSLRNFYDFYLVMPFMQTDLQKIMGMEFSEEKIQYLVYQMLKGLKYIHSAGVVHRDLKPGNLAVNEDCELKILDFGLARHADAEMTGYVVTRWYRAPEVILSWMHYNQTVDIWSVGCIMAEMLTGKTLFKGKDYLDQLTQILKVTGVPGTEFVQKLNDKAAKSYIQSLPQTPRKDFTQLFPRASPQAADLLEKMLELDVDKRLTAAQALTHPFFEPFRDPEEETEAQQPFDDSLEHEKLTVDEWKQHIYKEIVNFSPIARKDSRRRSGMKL

[15] = target: Mitogen-activated protein kinase 11 (Homo sapiens) (UniProt Q15759); assay: Inhibition of p38beta2 at 1 uM; values are per cent of control
[16] = target: Mitogen-activated protein kinase 12 (Homo sapiens) (UniProt P53778); assay: Inhibition of p38-gamma at 1 uM; values are per cent of control
[17] = target: Bone morphogenetic protein receptor type-2 (Homo sapiens, UniProt Q13873); assay: Inhibition of BMPR2
TGF-beta receptor type-2 = TGF-beta receptor type-2 (Homo sapiens, UniProt P37173); assay: Inhibition of TGFbeta2 receptor

Sequence of Tyrosine-protein kinase CSK (Homo sapiens) (P41240 2-450 limits assumed): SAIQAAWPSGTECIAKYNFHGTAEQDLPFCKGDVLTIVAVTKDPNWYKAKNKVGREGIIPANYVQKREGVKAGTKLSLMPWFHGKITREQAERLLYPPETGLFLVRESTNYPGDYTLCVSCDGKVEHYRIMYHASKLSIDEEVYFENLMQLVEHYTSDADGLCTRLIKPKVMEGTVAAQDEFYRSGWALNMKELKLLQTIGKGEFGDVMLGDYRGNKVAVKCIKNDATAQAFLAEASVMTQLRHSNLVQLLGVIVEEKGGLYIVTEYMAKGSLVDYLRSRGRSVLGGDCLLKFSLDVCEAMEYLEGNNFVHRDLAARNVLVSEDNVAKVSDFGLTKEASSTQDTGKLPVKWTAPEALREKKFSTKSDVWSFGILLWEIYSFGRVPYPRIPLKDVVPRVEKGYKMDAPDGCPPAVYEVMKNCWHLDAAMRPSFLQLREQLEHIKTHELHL
Sequence of Dual specificity mitogen-activated protein kinase kinase 2 (Homo sapiens) (P36507 whole entry): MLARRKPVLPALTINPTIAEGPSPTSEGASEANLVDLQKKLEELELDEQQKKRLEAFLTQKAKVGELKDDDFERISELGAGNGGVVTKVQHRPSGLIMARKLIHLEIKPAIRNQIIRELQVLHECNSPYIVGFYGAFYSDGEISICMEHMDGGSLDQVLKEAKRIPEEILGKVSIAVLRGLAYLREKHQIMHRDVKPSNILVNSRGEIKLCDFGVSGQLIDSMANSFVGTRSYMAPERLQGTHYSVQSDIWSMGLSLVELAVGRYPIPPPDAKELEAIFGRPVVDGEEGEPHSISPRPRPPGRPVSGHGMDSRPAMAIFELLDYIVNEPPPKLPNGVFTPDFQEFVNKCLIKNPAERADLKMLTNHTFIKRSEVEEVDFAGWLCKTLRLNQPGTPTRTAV
Sequence of Dual specificity mitogen-activated protein kinase kinase 1 (Homo sapiens) (Q02750 whole entry): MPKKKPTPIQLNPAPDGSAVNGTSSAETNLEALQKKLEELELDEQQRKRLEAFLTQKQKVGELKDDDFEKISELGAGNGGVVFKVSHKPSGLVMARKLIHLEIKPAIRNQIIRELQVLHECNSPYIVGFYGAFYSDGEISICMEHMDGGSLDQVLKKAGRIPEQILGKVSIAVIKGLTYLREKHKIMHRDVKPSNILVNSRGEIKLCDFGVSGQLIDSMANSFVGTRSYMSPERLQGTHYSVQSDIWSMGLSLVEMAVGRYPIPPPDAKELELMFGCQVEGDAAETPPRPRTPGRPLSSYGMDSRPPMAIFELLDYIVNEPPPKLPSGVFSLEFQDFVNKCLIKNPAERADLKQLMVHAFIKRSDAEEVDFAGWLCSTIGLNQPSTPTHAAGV
Sequence of Proto-oncogene tyrosine-protein kinase Src (Homo sapiens) (P12931 2-536 limits assumed): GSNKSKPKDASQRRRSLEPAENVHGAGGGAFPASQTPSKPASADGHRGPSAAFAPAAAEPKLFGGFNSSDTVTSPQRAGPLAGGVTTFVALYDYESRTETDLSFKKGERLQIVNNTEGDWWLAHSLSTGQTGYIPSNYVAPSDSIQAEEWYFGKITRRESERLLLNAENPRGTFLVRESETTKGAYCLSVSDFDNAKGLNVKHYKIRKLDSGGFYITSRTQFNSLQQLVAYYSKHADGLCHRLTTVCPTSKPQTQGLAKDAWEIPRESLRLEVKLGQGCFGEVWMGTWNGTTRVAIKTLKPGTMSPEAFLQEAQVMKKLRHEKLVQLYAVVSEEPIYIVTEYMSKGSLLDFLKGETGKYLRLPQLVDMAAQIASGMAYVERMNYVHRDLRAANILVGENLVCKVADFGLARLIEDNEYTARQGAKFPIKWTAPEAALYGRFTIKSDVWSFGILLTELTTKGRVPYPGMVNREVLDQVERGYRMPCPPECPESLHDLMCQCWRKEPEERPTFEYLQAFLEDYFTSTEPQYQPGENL
Sequence of Serine/threonine-protein kinase Nek6 (Homo sapiens) (Q9HC98 whole entry): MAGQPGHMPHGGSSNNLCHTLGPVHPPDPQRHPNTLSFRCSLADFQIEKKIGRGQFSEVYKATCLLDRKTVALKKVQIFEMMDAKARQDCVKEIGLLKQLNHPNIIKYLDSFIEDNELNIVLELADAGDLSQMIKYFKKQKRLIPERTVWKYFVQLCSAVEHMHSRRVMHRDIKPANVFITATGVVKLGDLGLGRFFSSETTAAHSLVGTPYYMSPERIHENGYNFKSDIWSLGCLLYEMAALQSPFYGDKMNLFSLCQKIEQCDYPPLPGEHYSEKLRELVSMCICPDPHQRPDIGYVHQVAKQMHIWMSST
Sequence of Ribosomal protein S6 kinase beta-1 (Homo sapiens) (P23443 whole entry, looked up): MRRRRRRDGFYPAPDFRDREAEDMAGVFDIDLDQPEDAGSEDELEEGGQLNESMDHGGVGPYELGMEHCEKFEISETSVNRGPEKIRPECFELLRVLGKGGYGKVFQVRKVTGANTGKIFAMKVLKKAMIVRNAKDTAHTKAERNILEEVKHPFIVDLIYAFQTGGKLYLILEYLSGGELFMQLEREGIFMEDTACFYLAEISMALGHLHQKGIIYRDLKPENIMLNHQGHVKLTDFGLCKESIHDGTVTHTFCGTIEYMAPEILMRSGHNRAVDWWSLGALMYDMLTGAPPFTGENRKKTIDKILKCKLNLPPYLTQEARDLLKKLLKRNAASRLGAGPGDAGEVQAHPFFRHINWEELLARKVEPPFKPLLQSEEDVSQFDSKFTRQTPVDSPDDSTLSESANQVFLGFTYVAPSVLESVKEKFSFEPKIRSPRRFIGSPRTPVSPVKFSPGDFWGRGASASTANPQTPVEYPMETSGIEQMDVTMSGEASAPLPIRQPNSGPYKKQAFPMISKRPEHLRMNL
Sequence of Platelet-derived growth factor receptor alpha (P16234 whole entry): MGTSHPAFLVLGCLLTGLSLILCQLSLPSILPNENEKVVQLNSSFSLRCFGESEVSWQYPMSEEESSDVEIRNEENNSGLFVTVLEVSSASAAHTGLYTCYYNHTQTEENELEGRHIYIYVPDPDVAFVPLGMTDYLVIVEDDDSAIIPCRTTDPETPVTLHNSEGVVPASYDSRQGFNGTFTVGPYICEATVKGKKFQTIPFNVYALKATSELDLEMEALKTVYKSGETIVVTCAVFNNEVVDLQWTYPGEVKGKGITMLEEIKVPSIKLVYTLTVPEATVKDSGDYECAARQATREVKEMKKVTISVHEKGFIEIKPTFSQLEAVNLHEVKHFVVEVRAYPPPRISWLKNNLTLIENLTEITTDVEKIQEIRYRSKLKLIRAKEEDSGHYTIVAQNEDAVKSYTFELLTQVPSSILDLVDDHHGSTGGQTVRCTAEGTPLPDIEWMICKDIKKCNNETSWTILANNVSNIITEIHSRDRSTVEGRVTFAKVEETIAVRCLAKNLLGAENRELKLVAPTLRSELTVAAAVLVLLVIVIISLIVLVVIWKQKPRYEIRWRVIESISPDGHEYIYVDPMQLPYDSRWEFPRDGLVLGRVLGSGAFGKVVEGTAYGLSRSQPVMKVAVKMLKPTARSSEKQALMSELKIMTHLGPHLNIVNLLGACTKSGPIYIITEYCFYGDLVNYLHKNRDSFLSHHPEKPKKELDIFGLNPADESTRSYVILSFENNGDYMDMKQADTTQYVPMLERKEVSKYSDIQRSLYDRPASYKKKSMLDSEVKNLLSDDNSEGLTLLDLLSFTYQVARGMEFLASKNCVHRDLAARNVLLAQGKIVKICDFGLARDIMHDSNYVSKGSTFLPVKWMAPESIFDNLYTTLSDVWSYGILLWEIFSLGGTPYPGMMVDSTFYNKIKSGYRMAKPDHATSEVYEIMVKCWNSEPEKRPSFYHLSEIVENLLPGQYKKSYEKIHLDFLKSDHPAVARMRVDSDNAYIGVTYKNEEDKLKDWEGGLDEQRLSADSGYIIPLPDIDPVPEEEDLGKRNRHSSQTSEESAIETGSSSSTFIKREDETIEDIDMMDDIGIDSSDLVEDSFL
Sequence of Mitogen-activated protein kinase 11 (Homo sapiens) (Q15759 whole entry): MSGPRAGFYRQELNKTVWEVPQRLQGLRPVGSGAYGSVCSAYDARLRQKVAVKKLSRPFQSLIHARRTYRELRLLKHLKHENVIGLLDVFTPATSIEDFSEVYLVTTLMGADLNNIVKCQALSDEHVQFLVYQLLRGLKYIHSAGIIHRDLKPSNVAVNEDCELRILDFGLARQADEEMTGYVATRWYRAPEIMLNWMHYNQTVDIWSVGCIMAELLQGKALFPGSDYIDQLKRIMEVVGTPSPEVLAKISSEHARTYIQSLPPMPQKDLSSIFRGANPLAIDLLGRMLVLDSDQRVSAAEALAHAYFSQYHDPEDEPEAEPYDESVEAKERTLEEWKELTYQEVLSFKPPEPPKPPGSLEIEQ

Row | SMILES | EC50 (TGF-beta receptor type-1 [1]) [nM] | IC50 (TGF-beta receptor type-1 [2]) [nM] | IC50 [3] [nM] | IC50 (HaCaT) [nM] | residual activity [4] [%] | residual activity [5] [%] | residual activity [6] [%] | residual activity [7] [%] | residual activity [8] [%] | residual activity [9] [%] | residual activity [10] [%] | residual activity [11] [%] | residual activity [12] [%] | residual activity [13] [%] | residual activity [14] [%] | residual activity [15] [%] | residual activity [16] [%] | IC50 [17] [nM] | IC50 (TGF-beta receptor type-2) [nM]
1 | CCNC(=O)c1ccc2c(c1)NC(=O)/C2=C(\Nc1ccc(CN(C)C)cc1)c1ccccc1 | 185 | 19 | 99 | > 1000 | 86 | 102 | 95 | 96 | 101 | 123 | 59 | 85 | 89 | – | – | – | – | – | –
2 | CN(C)C(=O)c1ccc2c(c1)/C(=C(/Nc1ccc(CN3CCCCC3)cc1)c1ccccc1)C(=O)N2 | 198 | 186 | – | > 1000 | – | 19 | 73 | 74 | 76 | 87 | 12 | 2 | 28 | 94 | 99 | 100 | 91 | – | –
3 | O=C1Nc2ccccc2/C1=C(/Nc1ccc(CN2CCCCC2)cc1)c1ccccc1 | – | 3460 | – | – | – | 5 | 90 | 32 | 12 | 86 | 4 | 4 | 29 | 75 | – | – | – | – | –
4 | CCNC(=O)c1ccc2c(c1)NC(=O)/C2=C(\Nc1ccc(N(CCN(C)C)S(C)(=O)=O)cc1)c1ccccc1 | 108 | 1 | 74 | – | – | 101 | 94 | 83 | 100 | 118 | 53 | 74 | 100 | – | – | – | – | – | –
5 | CCNCc1ccc(N/C(=C2\C(=O)Nc3cc(C(=O)N(C)CC)ccc32)c2ccccc2)cc1 | 160 | 32 | 1100 | > 1000 | 61 | 88 | 86 | 78 | 89 | 92 | 61 | 81 | 85 | 97 | 86 | – | – | – | –
6 | CCN(C)C(=O)c1ccc2c(c1)NC(=O)/C2=C(\Nc1ccc(CN2CCCCC2)cc1)c1ccccc1 | 105 | – | 890 | > 1000 | 86 | 150 | 98 | 72 | 96 | 88 | 48 | 80 | 88 | 102 | 108 | 98 | 93 | > 50000 | 19000
